From patent US20100041891A1, “AMIDE COMPOUND” (Takeda Pharmaceutical Company Limited, priority 2008, published 2010)

Key:
human GPR52 = biological target: T1, human GPR52 (Homo sapiens, UniProt Q9Y2T5); test: Increased intracellular cAMP levels in human GPR52 expression CHO cells; assay type: cell-based; details: 1 μM test compound, 30 min at 37° C., human GPR52 expression CHO (dhfr-) cells; 100% = cAMP level with 1 μM Reference Example 136, 0% = DMSO
T1 construct: expressed in transfected cells; host or cells: CHO (dhfr-) cells
Method: Increased intracellular cAMP levels in human GPR52 expression CHO cells 1×10^4 human GPR52 expression CHO (dhfr-) cells were incubated with 1 μM test compound for 30 min at 37° C. in 30 μL assay buffer (HBSS (containing Ca^2+ and Mg^2+), 0.5% BSA, 100 μM IBMX, 100 μM Ro 20-1724, 5 mM HEPES (pH 7.55)) using an OptiPlate-384 (by PerkinElmer). The intracellular cAMP level was then assayed with an EnVision (by PerkinElmer) according to the protocol of the AlphaScreen cAMP Assay Kit (by PerkinElmer). The GPR52 agonist activity was calculated, assuming the intracellular cAMP level in the presence of 1 μM of 3-(6-(2-(3,4-dimethoxyphenyl)ethoxy)pyridine-2-yl)-N-(2-pyrrolidin-1-ylethyl)benzamide (Reference Example 136) to be 100% and assuming the intracellular cAMP level when DMSO was added instead of test compound to be 0%.

[1] = system: methamphetamine-induced locomotor hyperactivity in mice; test: Inhibition of methamphetamine-induced locomotor hyperactivity; assay type: in vivo; details: male ICR mice, test compound 30 mg/kg orally, 60 min later methamphetamine 2 mg/kg subcutaneous, locomotor activity 90 min after methamphetamine, versus vehicle group
Method: Compounds of the present invention can be evaluated by assessing the inhibition of methamphetamine-induced locomotor hyperactivity in mice. The method of Okuyama et al was modified to test the inhibition of methamphetamine-induced locomotor hyperactivity (Life Science, Vol. 65, pages 2109-2125 (1999)).
Locomotor activity was measured using a 32-channel locomotor activity measurement device MDC-LT (by BrainScience Idea Co., Ltd.), which emits infrared beams from the top of a cage (30×40×20 cm). 6- to 8-week old male ICR mice were acclimated for at least 45 min in the measurement cages, and then either test compound (30 mg/kg) dissolved in vehicle (0.5% methylcellulose aqueous solution) or the vehicle alone were orally administered. This oral administration was followed 60 min later by subcutaneous administration of methamphetamine (2 mg/kg).
90 min after administration of methamphetamine, the number of times the laboratory animals passed through the infrared beams emitted inside the measurement cages was measured to quantify locomotor activity. The following equation was used to calculate the rate at which methamphetamine-induced locomotor hyperactivity was inhibited (activity inhibition rate (%)).
Activity inhibition rate (%)={1−(locomotor activity after treatment with methamphetamine in test compound treatment group÷locomotor activity after treatment with methamphetamine in vehicle treatment group)}×100

T1 sequence (Q9Y2T5 whole entry): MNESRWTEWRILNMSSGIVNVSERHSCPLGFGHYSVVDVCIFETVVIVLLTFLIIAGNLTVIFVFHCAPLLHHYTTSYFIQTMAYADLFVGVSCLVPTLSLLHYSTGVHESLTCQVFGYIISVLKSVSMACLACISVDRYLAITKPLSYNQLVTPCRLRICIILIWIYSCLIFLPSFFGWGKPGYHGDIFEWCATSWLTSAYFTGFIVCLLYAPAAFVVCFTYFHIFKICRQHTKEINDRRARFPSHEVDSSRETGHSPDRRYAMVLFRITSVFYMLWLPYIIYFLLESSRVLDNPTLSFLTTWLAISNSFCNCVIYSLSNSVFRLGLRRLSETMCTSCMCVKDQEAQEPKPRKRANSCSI

COCCNC(=O)c1cccc(-c2cccc3cc(Cc4cc(F)cc(Cl)c4)sc23)c1 [Working Example 179, 3-[2-(3-Chloro-5-fluorobenzyl)-1-benzothiophen-7-yl]-N-(2-methoxyethyl)benzamide]
GPR52 agonist activity (%) (human GPR52): 89%

N#CCCNC(=O)c1cccc(-c2nccc3oc(Cc4cccc(C(F)(F)F)c4)cc23)c1 [Working Example 23, N-(2-Cyanoethyl)-3-[2-[3-(trifluoromethyl)benzyl]furo[3,2-c]pyridin-4-yl]benzamide]
GPR52 agonist activity (%) (human GPR52): 75%

O=C(NCCO)c1cccc(-c2ccnc3cc(Cc4cccc(C(F)(F)F)c4)sc23)c1 [Working Example 265, N-(2-hydroxyethyl)-3-[2-[3-(trifluoromethyl)benzyl]thieno[3,2-b]pyridin-7-yl]benzamide]
GPR52 agonist activity (%) (human GPR52): 93%

O=C(NCCO)c1cccc(-c2cncc3cc(Cc4cccc(C(F)(F)F)c4)oc23)c1 [Working Example 413, N-(2-Hydroxyethyl)-3-[2-[3-(trifluoromethyl)benzyl]furo[3,2-c]pyridin-7-yl]benzamide]
GPR52 agonist activity (%) (human GPR52): 83%

CC(C)n1cc(Cc2cc3cccc(-c4cccc(C(=O)NCCO)c4)c3s2)ccc1=O [Working Example 292, N-(2-Hydroxyethyl)-3-[2-[[1-(1-methylethyl)-6-oxo-1,6-dihydropyridin-3-yl]methyl]-1-benzothiophen-7-yl]benzamide]
GPR52 agonist activity (%) (human GPR52): 61%

O=C(O)CNC(=O)c1cccc(-c2cccc3oc(Cc4cccc(C(F)(F)F)c4)cc23)c1 [Working Example 303, N-[(3-[2-[3-(Trifluoromethyl)benzyl]-1-benzofuran-4-yl]phenyl)carbonyl]glycine]
melting point: 89 to 94 °C

CC(C)OCCNC(=O)c1cccc(-c2cccc3cc(Cc4cc(F)cc(Cl)c4)sc23)c1 [Working Example 360, 3-[2-(3-Chloro-5-fluorobenzyl)-1-benzothiophen-7-yl]-N-[2-(1-methylethoxy)ethyl]benzamide]
GPR52 agonist activity (%) (human GPR52): 79% | Activity Inhibition Rate (%) [1]: 41%

O=C(NCCO)c1ccnc(-c2cccc3cc(Cc4cccc(C(F)(F)F)c4)sc23)c1 [Working Example 198, N-(2-Hydroxyethyl)-2-[2-[3-(trifluoromethyl)benzyl]-1-benzothiophen-7-yl]pyridine-4-carboxamide]
GPR52 agonist activity (%) (human GPR52): 88% | Activity Inhibition Rate (%) [1]: 45%

O=C(NCCO)c1cccc(-c2cccc3oc(Cc4cccc(C(F)(F)F)c4)cc23)c1 [Working Example 7, N-(2-Hydroxyethyl)-3-[2-[3-(trifluoromethyl)benzyl]-1-benzofuran-4-yl]benzamide]
GPR52 agonist activity (%) (human GPR52): 82% | Activity Inhibition Rate (%) [1]: 89%

O=C(NCCO)c1cc(F)cc(-c2ccc(F)c3cc(Cc4cccc(C(F)(F)F)c4)sc23)c1 [Working Example 271, 3-Fluoro-5-[4-fluoro-2-[3-(trifluoromethyl)benzyl]-1-benzothiophen-7-yl]-N-(2-hydroxyethyl)benzamide]
GPR52 agonist activity (%) (human GPR52): 94%

NC(=O)CNC(=O)c1cccc(-c2cccc3c(F)c(Cc4cccc(C(F)(F)F)c4)sc23)c1 [Working Example 405, N-(2-Amino-2-oxoethyl)-3-[3-fluoro-2-[3-(trifluoromethyl)benzyl]-1-benzothiophen-7-yl]benzamide]
GPR52 agonist activity (%) (human GPR52): 113%

NC(=O)CNC(=O)c1cccc(-c2ccc(F)c3cc(Cc4cccc(C(F)(F)F)c4)sc23)c1 [Working Example 230, N-(2-Amino-2-oxoethyl)-3-[4-fluoro-2-[3-(trifluoromethyl)benzyl]-1-benzothiophen-7-yl]benzamide]
GPR52 agonist activity (%) (human GPR52): 85% | Activity Inhibition Rate (%) [1]: 58%

NC(=O)CNC(=O)c1cccc(-c2cccc3sc(Cc4cccc(C(F)(F)F)c4)cc23)c1 [Working Example 165, N-(2-Amino-2-oxoethyl)-3-[2-[3-(trifluoromethyl)benzyl]-1-benzothiophen-4-yl]benzamide]
GPR52 agonist activity (%) (human GPR52): 108%

O=C1NCc2c1cccc2-c1cccc2cc(Cc3cccc(C(F)(F)F)c3)sc12 [Working Example 326, 4-[2-[3-(Trifluoromethyl)benzyl]-1-benzothiophen-7-yl]-2,3-dihydro-1H-isoindole-1-one]
GPR52 agonist activity (%) (human GPR52): 92%

NC(=O)CNC(=O)c1cccc(-c2cccc3sc(Cc4cccc(C(F)(F)F)c4)nc23)c1 [Working Example 252, N-(2-Amino-2-oxoethyl)-3-[2-[3-(trifluoromethyl)benzyl]-1,3-benzothiazol-4-yl]benzamide]
GPR52 agonist activity (%) (human GPR52): 80%

NC(=O)CNC(=O)c1cccc(-c2cccc3cc(Cc4ccc(F)c(Cl)c4)sc23)c1 [Working Example 174, N-(2-Amino-2-oxoethyl)-3-[2-(3-chloro-4-fluorobenzyl)-1-benzothiophen-7-yl]benzamide]
GPR52 agonist activity (%) (human GPR52): 90%

O=C(NCCO)c1cccc(-c2cccc3cc(Cc4cc(F)cc(Cl)c4)sc23)n1 [Working Example 222, 6-[2-(3-Chloro-5-fluorobenzyl)-1-benzothiophen-7-yl]-N-(2-hydroxyethyl)pyridine-2-carboxamide]
GPR52 agonist activity (%) (human GPR52): 62%

O=C(NCCO)c1cccc(-c2cccn3c(=O)n(Cc4cccc(C(F)(F)F)c4)nc23)c1 [Working Example 99, N-(2-Hydroxyethyl)-3-[3-oxo-2-[3-(trifluoromethyl)benzyl]-2,3-dihydro[1,2,4]triazolo[4,3-a]pyridin-8-yl]benzamide]
GPR52 agonist activity (%) (human GPR52): 67%

COCCNC(=O)c1cccc(-c2ccc(F)c3cc(Cc4cccc(S(C)(=O)=O)c4)sc23)c1 [Working Example 159, 3-[4-Fluoro-2-[3-(methylsulfonyl)benzyl]-1-benzothiophen-7-yl]-N-(2-methoxyethyl)benzamide]
GPR52 agonist activity (%) (human GPR52): 80%

N#CCCNC(=O)c1ccnc(-c2cccc3oc(Cc4cccc(C(F)(F)F)c4)cc23)c1 [Working Example 21, N-(2-Cyanoethyl)-2-[2-[3-(trifluoromethyl)benzyl]-1-benzofuran-4-yl]isonicotinamide]
GPR52 agonist activity (%) (human GPR52): 74%

Cn1c(Cc2cccc(C(F)(F)F)c2)nc2c(-c3cccc(C(=O)NCCC#N)c3)cccc21 [Working Example 88, N-(2-Cyanoethyl)-3-[1-methyl-2-[3-(trifluoromethyl)benzyl]-1H-benzimidazol-4-yl]benzamide]
GPR52 agonist activity (%) (human GPR52): 59% | Activity Inhibition Rate (%) [1]: 37%

Cc1c(Cc2cccc(C(F)(F)F)c2)sc2c(-c3cccc(C(=O)NCCO)c3)cccc12 [Working Example 191, N-(2-Hydroxyethyl)-3-[3-methyl-2-[3-(trifluoromethyl)benzyl]-1-benzothiophen-7-yl]benzamide]
GPR52 agonist activity (%) (human GPR52): 94% | Activity Inhibition Rate (%) [1]: 65%

NC(=O)CNC(=O)c1cncc(-c2cccc3cc(Cc4cc(F)cc(Cl)c4)sc23)c1 [Working Example 221, N-(2-Amino-2-oxoethyl)-5-[2-(3-chloro-5-fluorobenzyl)-1-benzothiophen-7-yl]pyridine-3-carboxamide]
GPR52 agonist activity (%) (human GPR52): 81%

N#CCCNC(=O)c1cccc(-c2cccc3nn(Cc4ccc(F)c(Cl)c4)cc23)c1 [Working Example 65, 3-[2-(3-Chloro-4-fluorobenzyl)-2H-indazol-4-yl]-N-(2-cyanoethyl)benzamide]
GPR52 agonist activity (%) (human GPR52): 75%

NC(=O)c1cccc(-c2cccc3cc(COc4cccc(C(F)(F)F)c4)sc23)c1 [Working Example 184, 3-(2-[[3-(Trifluoromethyl)phenoxy]methyl]-1-benzothiophen-7-yl]benzamide]
GPR52 agonist activity (%) (human GPR52): 82%
